Target: T1, EZH1/SUZ/EED (Homo sapiens, UniProt O75530+Q15022+Q92800)
T1 construct: purchased BPS 51006
Experiment: Inhibitory effect on EZH1 by the MTase-Glo method (Test Example 1)
Assay type: biochemical
Details: EZH1/SUZ/EED 25 nM, H3 peptide 10 μM, SAM 3 μM, 30° C. 3 h, read-out: Test Example 1 WT EZH1 IC50
Procedure: (§1) The compound was dissolved in DMSO, and the compound was serially diluted using ECHO665 and transferred to a 384-well reaction plate (Corning, 3824). A sample containing only DMSO was added as a positive control (maximum signal control) and a negative control (minimum signal control), while ensuring that the final DMSO content in each reaction well was 0.5%. The protein was configured in reaction buffer (50 mM Bicine, 0.01% Triton X-100, 1 mM DTT, 0.01% BSA, pH 7.6), such that the final reaction concentrations of EZH2/SUZ/EED (BPS, 51003) protein solution and EZH1/SUZ/EED (BPS, 51006) were 6.25 nM and 25 nM, respectively. The negative control (minimum signal control) used an equal amount of buffer instead of protein solution. The prepared protein solution was added to the 384-well reaction plate and pre-incubated at room temperature for 15 minutes. The mixture of the substrate H3 peptide fragment (custom-synthesized by GenScript, biotinylated Histone H3(21-44) peptide ([…]-GG-K(Biotin)-OH)) prepared in the reaction buffer and SAM (Promega, V7601) was added into the 384-well plate, such that the final reaction concentration of H3 peptide fragment was 10 μM, and the final concentration of SAM was 3 μM. The mixture was centrifuged at 1000 rpm for 1 min. The 384-well reaction plate was placed in a constant temperature shaker and incubate at 30° C. for 3 h at a speed of 300 rpm. Then the detection reagent was added according to the experimental process of the kit MTase-Glo (Promega, V7601) and incubated.
(§2) After incubation, read with BMG PHERAStar. The luminescence signals obtained by positive control (maximum signal control) and negative control (minimum signal control) were normalized to obtain the inhibition rate of different concentrations of compounds. Then, the IC50 of the compound on the enzyme activity inhibition was calculated by GraphPad Prism 6 with log(inhibitor) vs. response-Variable slope model fitting. The fitting equation is: Y=Bottom+(Top−Bottom)/(1+10^((Log IC50−X)*HillSlope)), wherein Y represents the known percentage remaining enzyme activity, and X represents the known activity after Log compound concentration.

T1 sequence (Q92800 2-747 limits assumed): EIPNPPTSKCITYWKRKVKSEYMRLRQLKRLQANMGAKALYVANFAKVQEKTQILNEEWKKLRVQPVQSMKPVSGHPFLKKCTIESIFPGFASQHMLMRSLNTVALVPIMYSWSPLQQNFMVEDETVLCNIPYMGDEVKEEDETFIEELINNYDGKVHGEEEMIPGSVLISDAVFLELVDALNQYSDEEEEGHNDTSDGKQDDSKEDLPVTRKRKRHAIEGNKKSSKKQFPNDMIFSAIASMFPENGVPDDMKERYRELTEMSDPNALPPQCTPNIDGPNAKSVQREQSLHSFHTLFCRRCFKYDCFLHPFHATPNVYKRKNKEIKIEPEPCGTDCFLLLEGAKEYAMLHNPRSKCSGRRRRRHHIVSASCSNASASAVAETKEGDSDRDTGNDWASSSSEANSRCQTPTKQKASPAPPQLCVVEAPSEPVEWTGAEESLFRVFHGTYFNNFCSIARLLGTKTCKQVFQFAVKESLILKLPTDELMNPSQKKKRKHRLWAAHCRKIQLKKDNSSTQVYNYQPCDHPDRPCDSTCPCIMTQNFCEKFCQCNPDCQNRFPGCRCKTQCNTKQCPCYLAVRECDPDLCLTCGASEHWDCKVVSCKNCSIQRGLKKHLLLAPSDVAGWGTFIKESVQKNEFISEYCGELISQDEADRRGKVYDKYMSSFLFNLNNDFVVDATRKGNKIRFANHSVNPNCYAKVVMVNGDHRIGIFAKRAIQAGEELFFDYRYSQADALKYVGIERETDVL
T1 sequence (Q15022 2-739 partner limits assumed): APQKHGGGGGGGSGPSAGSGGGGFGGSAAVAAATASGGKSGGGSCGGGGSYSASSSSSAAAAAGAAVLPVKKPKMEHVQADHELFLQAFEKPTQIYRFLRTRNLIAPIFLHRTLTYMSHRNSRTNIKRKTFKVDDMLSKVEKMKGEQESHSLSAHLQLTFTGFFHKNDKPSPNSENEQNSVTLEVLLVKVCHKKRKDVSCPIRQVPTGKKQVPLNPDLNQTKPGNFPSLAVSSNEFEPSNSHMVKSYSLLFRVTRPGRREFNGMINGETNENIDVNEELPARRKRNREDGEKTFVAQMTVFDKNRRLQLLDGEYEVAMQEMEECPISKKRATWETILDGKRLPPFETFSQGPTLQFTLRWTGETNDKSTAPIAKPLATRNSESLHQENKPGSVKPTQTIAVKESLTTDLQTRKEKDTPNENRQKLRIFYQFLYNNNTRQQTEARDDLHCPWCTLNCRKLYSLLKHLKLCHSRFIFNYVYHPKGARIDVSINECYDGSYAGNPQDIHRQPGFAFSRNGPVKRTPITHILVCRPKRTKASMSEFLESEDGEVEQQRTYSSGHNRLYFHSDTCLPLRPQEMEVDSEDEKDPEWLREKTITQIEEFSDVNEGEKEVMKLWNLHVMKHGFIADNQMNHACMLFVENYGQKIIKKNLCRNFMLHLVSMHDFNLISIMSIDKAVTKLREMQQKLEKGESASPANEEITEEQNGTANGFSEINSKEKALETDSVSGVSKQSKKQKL
T1 sequence (O75530 2-441 partner limits assumed): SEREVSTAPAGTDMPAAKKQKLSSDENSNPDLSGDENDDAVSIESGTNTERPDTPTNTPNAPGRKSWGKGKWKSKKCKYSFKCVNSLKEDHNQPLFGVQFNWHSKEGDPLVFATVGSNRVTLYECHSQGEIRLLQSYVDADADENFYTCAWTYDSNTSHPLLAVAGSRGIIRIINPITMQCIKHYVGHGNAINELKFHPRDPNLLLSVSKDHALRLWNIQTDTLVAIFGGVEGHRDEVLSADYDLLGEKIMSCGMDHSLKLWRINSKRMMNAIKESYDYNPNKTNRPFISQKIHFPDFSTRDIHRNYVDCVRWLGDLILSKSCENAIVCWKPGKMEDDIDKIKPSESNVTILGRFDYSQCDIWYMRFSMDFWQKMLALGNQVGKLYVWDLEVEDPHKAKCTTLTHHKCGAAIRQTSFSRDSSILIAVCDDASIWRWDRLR

Compound	IC50
CSc1cc(C)[nH]c(=O)c1CNC(=O)c1cc(Cl)c2c(c1C)O[C@@H]([C@H]1CC[C@H](N3CC(CF)C3)CC1)CO2 [Compound 35]	7.4 nM
CSc1cc(C)[nH]c(=O)c1CNC(=O)c1cc(Cl)c2c(c1C)O[C@@H]([C@H]1CC[C@@H](NC3(CF)COC3)CC1)CO2 [Compound 36]	9.7 nM
CSc1cc(C)[nH]c(=O)c1CNC(=O)c1cc(Cl)c2c(c1C)O[C@@H]([C@H]1CC[C@H](NC3(CF)COC3)CC1)CO2 [Compound 37]	5.9 nM
CCS(=O)(=O)N1CCC([C@H]2COc3c(Cl)cc(C(=O)NCc4c(SC)cc(C)[nH]c4=O)c(C)c3O2)CC1 [Compound 38]	4.7 nM
COC1C2CN([C@H]3CC[C@@H]([C@H]4COc5c(Cl)cc(C(=O)NCc6c(SC)cc(C)[nH]c6=O)c(C)c5O4)CC3)CC21 (stereo partly drawn) [Compound 43]	4.1 nM
Cc1cc(C)c(CNC(=O)c2cc(Cl)c3c(c2C)O[C@@H]([C@H]2CC[C@@H](N4CC5COCC5C4)CC2)CO3)c(=O)[nH]1 (stereo partly drawn) [Compound 73]	196 nM
Cc1cc(C)c(CNC(=O)c2cc(Cl)c3c(c2C)O[C@@H]([C@H]2CC[C@H](N4CC5COCC5C4)CC2)CO3)c(=O)[nH]1 (stereo partly drawn) [Compound 75]	199 nM
Cc1cc(C)c(CNC(=O)c2cc(Cl)c3c(c2C)OC(C2CCC(N(C)C)CC2)C(C)O3)c(=O)[nH]1 (stereo not drawn) [Compound 124]	326 nM
Cc1cc(C)c(CNC(=O)c2cc(Cl)c3c(c2Cl)OC[C@@H]([C@H]2CC[C@@H](N(C)C)CC2)O3)c(=O)[nH]1 [Compound 147]	92 nM

The remaining lines, values ahead:

IC50	Compound
27.3 nM	COCCOC1CN([C@H]2CC[C@@H]([C@H]3COc4c(Cl)cc(C(=O)NCc5c(C)cc(C)[nH]c5=O)c(C)c4O3)CC2)C1 [Compound 91]
33.1 nM	COC1CN([C@H]2CC[C@@H]([C@H]3COc4c(Cl)cc(C(=O)NCc5c(C)cc(C)[nH]c5=O)c(C)c4O3)CC2)C1 [Compound 92]
17.8 nM	COCCN(C)[C@H]1CC[C@@H]([C@H]2COc3c(Cl)cc(C(=O)NCc4c(OC)cc(C)[nH]c4=O)c(C)c3O2)CC1 [Compound 107]
15.4 nM	COc1cc(C)[nH]c(=O)c1CNC(=O)c1cc(Cl)c2c(c1C)O[C@@H]([C@H]1CC[C@H](N3CC(OCCF)C3)CC1)CO2 [Compound 110]
307 nM	Cc1cc(C)c(CNC(=O)c2cc(Cl)c3c(c2C)OC(C2CCC(N(C)CCF)CC2)CO3)c(=O)[nH]1 (stereo not drawn) [Compound 125]
218 nM	Cc1cc(C)c(CNC(=O)c2cc(Cl)c3c(c2C)OC(C2CCC(N(C)C4CC(F)C4)CC2)CO3)c(=O)[nH]1 (stereo not drawn) [Compound 126]
46.8 nM	Cc1cc(C)c(CNC(=O)c2c(C)c3c(c(Cl)c2F)OC[C@H]([C@H]2CC[C@@H](N(C)C)CC2)O3)c(=O)[nH]1 [Compound 131]

Test system: H3K27Me3 methylation in Karpas-422 cells
Experiment: H3K27Me3 cell method, inhibition of H3K27Me3 methylation (Test Example 2)
Assay type: cell-based, human
Details: Homo sapiens, KARPAS-422, 72 h, Karpas-422 cells, 3 days incubation, HTRF signal; read-out: Test Example 2 H3K27Me3 inhibition (Karpas-422) IC50
Procedure: Karpas-422 (Nanjing Kebai, CBP60629) cells were seeded in a 96-well plate (Corning, 3894) at 15,000 cells per well in culture medium (80% 1640 (Hyclone, SH30809.01)+20% FBS (Corning, 35-081-CV)), and then added with different concentrations of compounds for treatment. The cell growth group without adding compounds is used as a positive control (maximum signal control), and the medium is used as a negative control (minimum signal control), while ensuring that in each reaction well, the final concentration of DMSO was 0.2%. Compounds and cells were incubated for 3 days in a cell culture incubator (37° C., 5% CO2). The 96-well plate was taken out from the cell culture incubator and equilibrated to room temperature, and 25 ul of cell suspension was taken out into a 384-well plate. The CCK8 (Beiyuntian, C0040) detection reagent was added, incubated at 37° C. for 1 h, and […] was detected. The rest of the cells followed the procedure of the kit EPIgeneous H3K27Me3 cellular kit (Cisbio, 62KC3PAE) to carry out experiment, read HTRF signal with BMG PHERAStar. […] By GraphPad Prism 6 with log(inhibitor)vs.response-Variable slope model simulation, the IC50 of the compound on cell activity inhibition was calculated. The fitting equation is: Y=Bottom+(Top−Bottom)/(1+10^((Log IC50−X)*HillSlope)), wherein Y represents the inhibition rate, and X represents the known concentration of the compound after Log.

Compound	IC50
CSc1cc(C)[nH]c(=O)c1CNC(=O)c1cc(Cl)c2c(c1C)O[C@@H]([C@H]1CC[C@H](N3CC(CF)C3)CC1)CO2 [Compound 35]	60.5 nM
CSc1cc(C)[nH]c(=O)c1CNC(=O)c1cc(Cl)c2c(c1C)O[C@@H]([C@H]1CC[C@@H](NC3(CF)COC3)CC1)CO2 [Compound 36]	11 nM
CSc1cc(C)[nH]c(=O)c1CNC(=O)c1cc(Cl)c2c(c1C)O[C@@H]([C@H]1CC[C@H](NC3(CF)COC3)CC1)CO2 [Compound 37]	7 nM
CCS(=O)(=O)N1CCC([C@H]2COc3c(Cl)cc(C(=O)NCc4c(SC)cc(C)[nH]c4=O)c(C)c3O2)CC1 [Compound 38]	11.5 nM
COC1C2CN([C@H]3CC[C@@H]([C@H]4COc5c(Cl)cc(C(=O)NCc6c(SC)cc(C)[nH]c6=O)c(C)c5O4)CC3)CC21 (stereo partly drawn) [Compound 43]	4.1 nM
Cc1cc(C)c(CNC(=O)c2cc(Cl)c3c(c2C)O[C@@H]([C@H]2CC[C@@H](N4CC5COCC5C4)CC2)CO3)c(=O)[nH]1 (stereo partly drawn) [Compound 73]	> 1000 nM
Cc1cc(C)c(CNC(=O)c2cc(Cl)c3c(c2C)O[C@@H]([C@H]2CC[C@H](N4CC5COCC5C4)CC2)CO3)c(=O)[nH]1 (stereo partly drawn) [Compound 75]	245 nM

Second part, the compound after the results:

IC50	Compound
11.7 nM	COCCOC1CN([C@H]2CC[C@@H]([C@H]3COc4c(Cl)cc(C(=O)NCc5c(C)cc(C)[nH]c5=O)c(C)c4O3)CC2)C1 [Compound 91]
22 nM	COC1CN([C@H]2CC[C@@H]([C@H]3COc4c(Cl)cc(C(=O)NCc5c(C)cc(C)[nH]c5=O)c(C)c4O3)CC2)C1 [Compound 92]
56.9 nM	COCCN(C)[C@H]1CC[C@@H]([C@H]2COc3c(Cl)cc(C(=O)NCc4c(OC)cc(C)[nH]c4=O)c(C)c3O2)CC1 [Compound 107]
21.3 nM	COc1cc(C)[nH]c(=O)c1CNC(=O)c1cc(Cl)c2c(c1C)O[C@@H]([C@H]1CC[C@H](N3CC(OCCF)C3)CC1)CO2 [Compound 110]
402 nM	Cc1cc(C)c(CNC(=O)c2cc(Cl)c3c(c2C)OC(C2CCC(N(C)CCF)CC2)CO3)c(=O)[nH]1 (stereo not drawn) [Compound 125]
818 nM	Cc1cc(C)c(CNC(=O)c2cc(Cl)c3c(c2C)OC(C2CCC(N(C)C4CC(F)C4)CC2)CO3)c(=O)[nH]1 (stereo not drawn) [Compound 126]
43.3 nM	Cc1cc(C)c(CNC(=O)c2c(C)c3c(c(Cl)c2F)OC[C@H]([C@H]2CC[C@@H](N(C)C)CC2)O3)c(=O)[nH]1 [Compound 131]

Same assay, conditions: Homo sapiens, KARPAS-422, 72 h, read-out: Test Example 2 H3K27Me3 inhibition (Karpas-422) IC50(nM)

Compound	IC50
Cc1cc(C)c(CNC(=O)c2cc(Cl)c3c(c2C)OC(C2CCC(N(C)C)CC2)C(C)O3)c(=O)[nH]1 (stereo not drawn) [Compound 124]	133 nM
Cc1cc(C)c(CNC(=O)c2cc(Cl)c3c(c2Cl)OC[C@@H]([C@H]2CC[C@@H](N(C)C)CC2)O3)c(=O)[nH]1 [Compound 147]	83 nM

Target: T2, EZH2/SUZ/EED (Homo sapiens, UniProt O75530+Q15022+Q15910)
T2 construct: purchased BPS 51003
Experiment: Inhibitory effect on EZH2 by the MTase-Glo method (Test Example 1)
Assay type: biochemical
Details: EZH2/SUZ/EED 6.25 nM, H3 peptide 10 μM, SAM 3 μM, 30° C. 3 h, read-out: Test Example 1 WT EZH2 IC50
Procedure: as §1, §2

T2 sequence (Q15910 2-746 limits assumed): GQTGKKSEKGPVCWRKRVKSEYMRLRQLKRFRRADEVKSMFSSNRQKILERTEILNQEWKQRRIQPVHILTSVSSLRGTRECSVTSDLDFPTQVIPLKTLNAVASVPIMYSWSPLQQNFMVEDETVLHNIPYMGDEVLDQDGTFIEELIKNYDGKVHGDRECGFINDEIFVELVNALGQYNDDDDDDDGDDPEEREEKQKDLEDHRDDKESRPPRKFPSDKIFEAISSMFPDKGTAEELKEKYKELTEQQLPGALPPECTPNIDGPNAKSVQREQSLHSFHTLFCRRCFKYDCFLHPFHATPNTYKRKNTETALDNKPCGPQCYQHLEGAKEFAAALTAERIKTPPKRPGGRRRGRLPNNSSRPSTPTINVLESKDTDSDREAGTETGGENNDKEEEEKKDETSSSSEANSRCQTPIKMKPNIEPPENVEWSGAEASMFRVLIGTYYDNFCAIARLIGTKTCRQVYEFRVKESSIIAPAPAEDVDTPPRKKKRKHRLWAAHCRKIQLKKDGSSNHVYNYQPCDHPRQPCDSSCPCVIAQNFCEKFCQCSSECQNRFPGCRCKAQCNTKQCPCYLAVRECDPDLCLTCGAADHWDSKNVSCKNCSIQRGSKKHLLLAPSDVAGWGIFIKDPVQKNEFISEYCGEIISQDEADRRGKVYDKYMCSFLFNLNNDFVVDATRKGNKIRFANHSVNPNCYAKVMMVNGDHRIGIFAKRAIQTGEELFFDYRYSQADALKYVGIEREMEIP
T2 sequence (Q15022 2-739 partner limits assumed): as the sequence (Q15022 2-739 partner limits assumed) above
T2 sequence (O75530 2-441 partner limits assumed): as the sequence (O75530 2-441 partner limits assumed) above

Compound	IC50
CSc1cc(C)[nH]c(=O)c1CNC(=O)c1cc(Cl)c2c(c1C)O[C@@H]([C@H]1CC[C@H](N3CC(CF)C3)CC1)CO2 [Compound 35]	3.4 nM
CSc1cc(C)[nH]c(=O)c1CNC(=O)c1cc(Cl)c2c(c1C)O[C@@H]([C@H]1CC[C@@H](NC3(CF)COC3)CC1)CO2 [Compound 36]	2.4 nM
CSc1cc(C)[nH]c(=O)c1CNC(=O)c1cc(Cl)c2c(c1C)O[C@@H]([C@H]1CC[C@H](NC3(CF)COC3)CC1)CO2 [Compound 37]	3.1 nM
CCS(=O)(=O)N1CCC([C@H]2COc3c(Cl)cc(C(=O)NCc4c(SC)cc(C)[nH]c4=O)c(C)c3O2)CC1 [Compound 38]	2.3 nM
COC1C2CN([C@H]3CC[C@@H]([C@H]4COc5c(Cl)cc(C(=O)NCc6c(SC)cc(C)[nH]c6=O)c(C)c5O4)CC3)CC21 (stereo partly drawn) [Compound 43]	3.6 nM
Cc1cc(C)c(CNC(=O)c2cc(Cl)c3c(c2C)O[C@@H]([C@H]2CC[C@@H](N4CC5COCC5C4)CC2)CO3)c(=O)[nH]1 (stereo partly drawn) [Compound 73]	51.3 nM
Cc1cc(C)c(CNC(=O)c2cc(Cl)c3c(c2C)O[C@@H]([C@H]2CC[C@H](N4CC5COCC5C4)CC2)CO3)c(=O)[nH]1 (stereo partly drawn) [Compound 75]	48.1 nM
Cc1cc(C)c(CNC(=O)c2cc(Cl)c3c(c2C)OC(C2CCC(N(C)C)CC2)C(C)O3)c(=O)[nH]1 (stereo not drawn) [Compound 124]	16.1 nM
Cc1cc(C)c(CNC(=O)c2cc(Cl)c3c(c2Cl)OC[C@@H]([C@H]2CC[C@@H](N(C)C)CC2)O3)c(=O)[nH]1 [Compound 147]	6.8 nM

Continued, values first:

IC50	Compound
3.8 nM	COCCOC1CN([C@H]2CC[C@@H]([C@H]3COc4c(Cl)cc(C(=O)NCc5c(C)cc(C)[nH]c5=O)c(C)c4O3)CC2)C1 [Compound 91]
2.5 nM	COC1CN([C@H]2CC[C@@H]([C@H]3COc4c(Cl)cc(C(=O)NCc5c(C)cc(C)[nH]c5=O)c(C)c4O3)CC2)C1 [Compound 92]
3.2 nM	COCCN(C)[C@H]1CC[C@@H]([C@H]2COc3c(Cl)cc(C(=O)NCc4c(OC)cc(C)[nH]c4=O)c(C)c3O2)CC1 [Compound 107]
2.7 nM	COc1cc(C)[nH]c(=O)c1CNC(=O)c1cc(Cl)c2c(c1C)O[C@@H]([C@H]1CC[C@H](N3CC(OCCF)C3)CC1)CO2 [Compound 110]
33.9 nM	Cc1cc(C)c(CNC(=O)c2cc(Cl)c3c(c2C)OC(C2CCC(N(C)CCF)CC2)CO3)c(=O)[nH]1 (stereo not drawn) [Compound 125]
20.3 nM	Cc1cc(C)c(CNC(=O)c2cc(Cl)c3c(c2C)OC(C2CCC(N(C)C4CC(F)C4)CC2)CO3)c(=O)[nH]1 (stereo not drawn) [Compound 126]
3.1 nM	Cc1cc(C)c(CNC(=O)c2c(C)c3c(c(Cl)c2F)OC[C@H]([C@H]2CC[C@@H](N(C)C)CC2)O3)c(=O)[nH]1 [Compound 131]

Source: patent publication US20260184697A1, “EZH1/2 INHIBITOR, PREPARATION THEREOF, AND USE THEREOF IN ANTI-TUMOR THERAPY” (JIANGSU TASLY DIYI PHARMACEUTICAL CO., LTD., priority 2022, published 2026)
